Patent US11413266B2, “Use of cannabinoids in the treatment of inflammatory skin diseases” (GW Pharma Limited, priority 2015, dated 2022)

Columns and labels:
[1] = system: human epidermal keratinocytes; test: Summary score, TLR3-induced inflammation model (microbial infection-induced dermatitis); format: cell-based; conditions: sum of +1 anti-inflammatory, 0 no effect, −1 pro-inflammatory, Table 1
IL6 [2] = test: UVB-induced IL6 release in NHEK keratinocytes, ELISA; format: cell-based, human; conditions: NHEKs; higher concentrations
IL8 [3] = test: UVB-induced IL8 release in NHEK keratinocytes, ELISA; format: cell-based, human; conditions: NHEKs; only at given (mostly lower) concentrations
IL8 [4] = test: UVB-induced IL8 release in HaCaT keratinocytes, ELISA; format: cell-based, human
IL6 [5] = test: UVB-induced IL6 mRNA expression in HaCaT keratinocytes, RT-qPCR; format: cell-based, human
IL8 [6] = test: PolyIC-induced IL8 release in NHEK keratinocytes, ELISA; format: cell-based, human; conditions: NHEKs; concentration not singled out (0.3 and 3 μM tested)
IL6 [7] = test: UVB-induced IL6 release in HaCaT keratinocytes, ELISA; format: cell-based, human
IL8 [8] = test: SEB/TSLP-induced IL8 release in HPV-Ker keratinocytes, ELISA; format: cell-based, human; conditions: lower concentrations
IL6 [9] = test: PolyIC-induced IL6 release in NHEK keratinocytes, ELISA; format: cell-based, human; conditions: NHEKs; concentration not singled out (0.3 and 3 μM tested)
MCP-2 = MCP-2 ELISA in supernatants of poly-(I:C)-stimulated HaCaT cells; format: cell-based, human; conditions: for MCP-2 production: 6 h
HPV-Ker keratinocytes = test: Summary score, SEB/TSLP-induced inflammation model (atopic dermatitis); format: cell-based, human; conditions: for SCORE: sum of +1 anti-inflammatory, 0 no effect, −1 pro-inflammatory, Table 3; for Overall action in the SEB/TSLP-induced inflammation model: conclusion on Table 3
[10] = system: human epidermal keratinocytes; test: Summary score, UVB-induced inflammation model (solar dermatitis); format: cell-based; conditions: sum of +1 anti-inflammatory, 0 no effect, −1 pro-inflammatory, Table 2
IL8 [11] = test: UVB-induced IL8 mRNA expression in HaCaT keratinocytes, RT-qPCR; format: cell-based, human
[12] = system: DNFB-induced allergic contact dermatitis (ACD); test: DNFB-induced allergic contact dermatitis (ACD) in mice, ear swelling; format: in vivo
Procedure: A total of 10 animals per group were used in the experiments described here.
Briefly, DNFB was diluted in acetone/olive oil (4:1 by vol.) immediately before use and eight-ten week-old female C57BL/6J mice were sensitized by painting 50 μl of 0.2% DNFB on the shaved abdomen on two consecutive days. Then, mice were challenged by painting 10 μl of 0.3% DNFB on both sides of one ear on day 5.
Ear swelling was measured 24, 48 and 72 h after this first challenge by measuring the difference in ear thickness between the unchallenged and the challenged ear using an engineer's micrometer. CBD (2.5, -5- and 10 mg·kg-1) was administered intraperitoneally (i.p.) on day 5 (the day of the first challenge with DNFB), 6 and, 7 after the initial sensitization with DNFB. CBD was dissolved in DMSO and Tween-20 1%.
For the determination of MCP-2, endocannabinoids, PEA and OEA, group means were compared using the one-way ANOVA followed by Newman-Keuls multiple comparison test or the Student's t-test. For the determination of cell viability, group means were compared using the Student's t-test. All determinations were performed at least in triplicate. For the determination of ear thickness, group means were compared using the one-way ANOVA followed by Tukey-Kramer multiple comparison test (n=10).

AEA = AEA levels in poly-(I:C)-stimulated HaCaT cells (LC-APCI-MS); format: cell-based, human; conditions: CBD 20 μM, 6 h
Procedure: (§1) HaCaT cells were plated into six-well culture plates at a cell density of 9×10^5 cells per well, and after 1 day were stimulated with poly-(I:C) (100 μg·ml-1) and treated with CBD (20 μM) or vehicle, and incubated for 6 h at 37° C. in 5% CO2.
(§2) After 6 h the resulting cells and supernatants were subjected to measurement of endocannabinoids such as N-arachidonoyl-ethanolamine (anandamide, AEA) and 2-arachidonoyl-glycerol (2-AG), and related N-acylethanolamines such as PEA and N oleoylethanolamine (OEA).
(§3) Cells and supernatants were homogenized in a solution of chloroform/methanol/Tris-HCl 50 mM pH 7.4 (2:1:1 by vol.) containing 10 pmol of [2H]8-AEA, and 5 pmol of [2H]5-2-AG, [2H]4-PEA and [2H]2-OEA as internal deuterated standards. The lipid-containing organic phase was pre-purified by open-bed chromatography on silica gel, and fractions obtained by eluting the column with a solution of chloroform/methanol (90:10 by vol.) were analyzed by liquid chromatography-atmospheric pressure chemical ionization-mass spectrometry (LC-APCI-MS) by using a Shimadzu HPLC apparatus (LC-10ADVP) coupled to a Shimadzu (LCMS-2020) quadrupole MS via a Shimadzu APCI interface. […]

OEA = OEA levels in poly-(I:C)-stimulated HaCaT cells (LC-APCI-MS); format: cell-based, human; conditions: CBD 20 μM, 6 h
Procedure: as §1, §2, §3

HaCaT cells = test: Cell viability of HaCaT cells (MTT); format: cell-based, human; conditions: 20 μM
Procedure: Cell viability was measured after 6 h in HaCaT cells treated with CBD (20 μM) or vehicle by using the 3-(4,5-dimethylthiazol-2yl)-2,5-diphenyl tetrazolium bromide (MTT) colorimetric assay.
Briefly, after 6 h HaCaT cells were incubated with MTT (5 mg·ml-1) for 3 h at 37° C. in 5% CO2. After 3 h HaCaT cells were lysed with DMSO and incubated for 6 h at 37° C. in 5% CO2.
Absorbance was measured at 630 nm. Results are expressed as % of cell viability, where optical density values from vehicle-treated cells were defined as 100% of cell viability.

2-AG = 2-AG levels in poly-(I:C)-stimulated HaCaT cells (LC-APCI-MS); format: cell-based, human; conditions: CBD 20 μM, 6 h
Procedure: as §1, §2, §3

human sebocytes = conditions: Oláh et al., 2014; cited from earlier work
[13] = 20 μM, poly-(I:C)-stimulated HaCaT

Compound | SCORE ([1]; 0.3 μM) | SCORE ([1]; 3 μM) | UVB-upregulated expression of IL8 (IL8 [3]) | UVB-upregulated IL8 (ELISA) (IL8 [4]; 3 μM) | UVB-upregulated IL6 (RT-qPCR) (IL6 [5]; 0.3 μM) | PolyIC-induced elevated release of IL8 (IL8 [6]) | UVB-upregulated IL6 (ELISA) (IL6 [7]; 3 μM) | SEB/TSLP-induced up-regulation of IL8 release (IL8 [8]) | PolyIC-induced elevated release of IL6 (IL6 [9]) | MCP-2 production (MCP-2; [13]) | SCORE (HPV-Ker keratinocytes; 0.3 μM) | SCORE (HPV-Ker keratinocytes; 3 μM) | Overall action in the SEB/TSLP-induced inflammation model (HPV-Ker keratinocytes) | SCORE ([10]; 0.3 μM) | SCORE ([10]; 3 μM) | UVB-upregulated IL8 (RT-qPCR) (IL8 [11]; 0.3 μM) | UVB-upregulated IL8 (RT-qPCR) (IL8 [11]; 3 μM) | UVB-upregulated IL8 (ELISA) (IL8 [4]; 0.3 μM) | other results
CCCCCc1cc(O)c(C/C=C(\C)CCC=C(C)C)c(O)c1 [CBG, Cannabigerol] | 5 | 9 | significantly suppress | pro-inflammatory effects | anti-inflammatory effects | dose-dependent suppression | anti-inflammatory effects | did not induce any significant effect | dose-dependent suppression | able to reduce | 0 | 1 | most effective | 2 | 3 | – | – | – | UVB-upregulated IL6 (IL6 [2]): pro-inflammatory effects; UVB-upregulated IL6 (RT-qPCR) (IL6 [5]; 3 μM): anti-inflammatory effects; MCP-2 production (MCP-2; 5 μM, poly-(I:C)-stimulated HaCaT): no effect; MCP-2 production (MCP-2; 10 μM, poly-(I:C)-stimulated HaCaT): no effect
C=C(C)[C@@H]1CCC(C)=C[C@H]1c1c(O)cc(CCCCC)c(C(=O)O)c1O [CBDA, Cannabidiolic acid] | 7 | 10 | significantly suppress | pro-inflammatory effects | pro-inflammatory effects | dose-dependent suppression | – | did not induce any significant effect | dose-dependent suppression | – | 0 | 1 | most effective | 1 | −1 | pro-inflammatory effects | pro-inflammatory effects | pro-inflammatory effects | UVB-upregulated IL6 (ELISA) (IL6 [7]; 0.3 μM): pro-inflammatory effects; MCP-2 protein levels (MCP-2; all tested at 5, 10 and 20 μM, poly-(I:C)-stimulated HaCaT, data not shown): No effect
C=C(C)[C@@H]1CCC(C)=C[C@H]1c1c(O)cc(CCCCC)cc1O [CBD, Cannabidiol] | 5 | 8 | – | – | anti-inflammatory effects | dose-dependent suppression | anti-inflammatory effects | – | dose-dependent suppression | maximum effect | −1 | 1 | – | 5 | 1 | anti-inflammatory effects | pro-inflammatory effects | anti-inflammatory effects | ear thickness ([12]; 2.5 mg·kg-1 i.p.): did not show any statistically significant effect; ear thickness ([12]; 5 mg·kg-1 i.p.): did not show any statistically significant effect; ear thickness ([12]; 10 mg·kg-1 i.p. on day 5, 6 and 7, 48 h after first challenge, vs control mice): reduced; ear thickness ([12]; 10 mg·kg-1 i.p. on day 5, 6 and 7, 72 h after first challenge, vs control mice): reduced; AEA levels, increase compared to poly-(I:C)-stimulated HaCaT cells (AEA): −2.7 fold; AEA levels, increase compared to vehicle-treated HaCaT cells (AEA): −8 fold; OEA levels (OEA): No consistent effect; cytotoxicity (HaCaT cells): not cytotoxic; MCP-2 protein levels (MCP-2; 1, 5, 10 and 20 μM, poly-(I:C) 100 μg·ml-1, 6 h, vs vehicle): strong concentration-dependent reduction; MCP-2 protein levels (MCP-2; compound alone, 20 μM, absence of poly-(I:C), vs vehicle-treated HaCaT, data not shown): no significant variation; potency in the inhibition of MCP-2 chemokine production relative to other phytocannabinoids tested (MCP-2; poly-(I:C)-stimulated keratinocytes): more potent; 2-AG levels (2-AG): No consistent effect; anti-acne effects (human sebocytes): exerted anti-acne effects
